The record followed here is patent US11766442B2, “T-cell lymphoma treatments” (City of Hope, priority 2017, dated 2023).

The structures appear in SMILES notation. Read-outs that look alike come from different tables or passages of the source.

In one data set the test system is HUT78 cells. As to the kind of experiment: Cell viability assay using HUT78 cells in a CELLTITER-GLO assay. The format is cell-based, human. As to the method: Compound (1) and FK-228 (an anticancer agent used in CTCL) were tested in a cell viability assay using HUT78 cells in a CELLTITER-GLO® assay. […] See, FIG. 1B.
Compound (2) (FIG. 8A) was tested in a cell viability assay using HUT78 cells in a CELLTITER-GLO® assay. To determine IC50 value of Compound (2) against human CTCL HUT78 cells, viability assay was performed using CELLTITER-GLO® Reagent as described by the supplier (Promega, Madison, WI). Briefly, cells (7500/well) were seeded in opaque 96-well plates and exposed to Compound (1) in a dose-dependent manner for 72 h at 37° C. in 5% CO2. After 72 h treatment with compound (1), CELLTITER-GLO® Reagent ([…]) was added to 96-well plates. Viable cells which are metabolically active are directly proportional to the ATP present. Luminescent signals correlate with the amount of ATP present in cells. After 10 min incubation with CELLTITER-GLO® Reagent, luminescence was measured at an integration time of 1 second/well using an automated BMG plate reader. Dimethyl sulfoxide (DMSO) was used as the vehicle control. Each experiment was conducted in triplicate. IC50 values were determined using CalcuSyn software (Biosoft).

The test system of data set [1] is HUT78 CTCL cells. How it is done:
Compound (1) was tested in a cell proliferation assay using HUT78 CTCL cells. The cells were treated with 0.3, 1, 3, 10, 30, or 100 nM concentration of compound (1), and then incubated for 48 h or 72 h under the growth conditions. […] Cells cultured in the absence of compound (1) served as a control.

In data set [2] the test system is HUT78 CTCL cells. As to the kind of experiment: Carboxy-fluorescein succinimidyl ester (CFSE) staining cell proliferation assay. The format is cell-based, human. The conditions noted are these: 1.0, 10 or 100 nM, incubated 72 h. As to the method: Compound (1) was tested in a carboxy-fluorescein succinimidyl ester (CFSE) stained HUT78 CTCL proliferation assay. HUT78 cells were stained with CFSE dye. The CFSE stained cells were plated into 96-well plates in growth medium. The resulted cells were treated with 1.0, 10, or 100 nM solution of compound (1), and then incubated for 72 h under the growth conditions. After, optical densities were read on a multiwell scanning spectrophotometer at wavelength 488 nm.

The test system of data set [3] is HUT78 CTCL cells. As to the kind of experiment: Cell apoptosis assay using HUT78 CTCL cells. It is filed as cell-based, human. Particulars: incubated 72 h, read-out: IC50, apoptosis induction. How it is done:
Compound (1) was tested in a cell apoptosis assay using HUT78 CTCL cells.

The subject of data set [4] is HUT78 CTCL mouse xenograft. As to the kind of experiment: HUT78 CTCL mouse xenograft model. It is filed as in vivo. The conditions noted are these: for Drug associated toxicity observed in mice: compound (1) 20 mg/kg gavage, FK-228 2 mg/kg intraperitoneal twice weekly. How it is done: Compound (1) and FK-228 were tested for tumor growth inhibition in CTCL mouse xenograft models. One group of mice was treated with 20 mg/kg of compound (1) using gavage during 3 consecutive days, followed by 3 consecutive days of break. Another group of mice was treated with 2 mg/kg of FK-228 intraperitoneal, twice weekly. Mice with no treatment served as a control. The tumor volume, size, and weight were compared 12 days after the treatments started.

As for `C/C=C1\NC(=O)[C@H]2CSSCC/C=C/[C@H](CC(=O)N[C@H](C(C)C)C(=O)N2)OC(=O)[C@H](C(C)C)NC1=O` [FK-228, Romidepsin, reference compound], the IC50 with HUT78 cells (Homo sapiens) was determined as 6.95 nM.

`CN1C(=O)[C@@]23C[C@](C)(C#N)[C@H](c4ccc5c(c4)OCO5)N2C(=O)C1(C)S3=S` (some centres unmarked) [compound (1)]: the IC50 was found to be 75 nM with HUT78 CTCL cells [1] (read-out: IC50, cell proliferation, incubated 48 h); 10 nM with HUT78 CTCL cells [1] (read-out: IC50, cell proliferation, incubated 72 h); 19.7 nM with HUT78 CTCL cells [3]; 6.61 nM in the data set with HUT78 cells. The “Inhibition of proliferation of CFSE stained HUT78 CTCL cells” value with HUT78 CTCL cells [2] is “inhibits proliferation of HUT78 CTCL cells”. For the same molecule, the “Reduction of the tumor size” value in data set [4] (20 mg/kg gavage, 3 consecutive days on, 3 days break, 12 days after treatment start) was “results in the reduction of the tumor size”. The Tumor weight inhibition in data set [4] (20 mg/kg gavage, 3 consecutive days on, 3 days break, 12 days after treatment start, P<0.001) amounted to 89.8%. Also, the “Tumor growth inhibition (tumor volume)” value in data set [4] (20 mg/kg gavage, 3 consecutive days on, 3 days break, compared 12 days after treatment start, versus FK-228 regimen and vehicle) is on record as “results in tumor growth inhibition”. In data set [4], the “Drug associated toxicity observed in mice” value was “no toxicity was observed”.

With `C/C=C1\NC(=O)[C@H]2CSSCC/C=C/[C@H](CC(=O)N[C@H](C(C)C)C(=O)N2)OC(=O)[C@H](C(C)C)NC1=O` [romidespin, romidepsin, reference compound], the “Drug associated toxicity observed in mice” value in data set [4] is “Ascites and diarrhea”.
